From publication doi:10.1101/2023.05.15.540887, “Comparative analysis of drug-like EP300/CREBBP acetyltransferase inhibitors” (bioRxiv, 2023)
Several values for one entry are separate records, joined by “and”; a condition that tells them apart may be missing. Equal entries are not always repeated. Where two headings read alike, the source gives them in different places.

Experiments:
Type in all cases: cell-based, human
SF-268 = test: NCI-60 growth inhibition (sulforhodamine B)
[1] = tested on: histone H3 acetylation in T-47D cells; test: Quantitative LC-MS analysis of histone H3 acetylation in T-47D cells; details: 24 h
Source text: In principle the phenotype elicited by any single small molecule can be due to either an on- or off-target effect; however, if multiple chemically distinct small molecules designed to target a single gene all elicit the same phenotype, one’s confidence in their on-target mechanism becomes greater. As such, we sought to apply our knowledge of the comparative potencies of 1-3 to test whether the simplest phenotype caused by EP300/CREBBP inhibitors – cell death – was consistent with their effects on histone acetylation and a putative on-target mechanism. Compounds 1-3 were submitted for analysis in the NCI-60 screen, which has been used since 1990 to analyze the growth inhibitor effects of small molecules across a range of transformed cell lines derived from diverse tissues of origin including colorectal, renal, ovarian, prostate, lung, breast, and central nervous system tumors.[28] […] These trends were further confirmed using an orthogonal ATP-Glo assay in MCF-7 cells (Fig. S2). Subsequently, the COMPARE algorithm was used to compare the patterns of growth inhibition elicited by 1-3 in the NCI-60 assay against the >150,000 compounds analyzed in the screen to date.[29] […] Finally, the specificity of CPI-1612 (3) was directly assessed using quantitative LC-MS analysis of histone acetylation in treated cells,[33] focusing on four abundant histone acetylation markers whose writers are well-characterized: H3K9Ac (written by KAT2A/B), H3K14Ac (KAT7), H3K18Ac (EP300/CREBBP), and H3K23Ac (KAT6A/B; Fig. 3e).[26] […] An increase in the levels of singly modified H3K23Ac peptide coincided with specific loss of H3K18Ac from K18/K23 diacetylated peptide, indicative of orthogonal regulation. Overall, the parallel trends in the biochemical and cellular potencies of EP300/CREBBP inhibitors are consistent with an on-target mechanism for 1-3 and further highlight the relatively high potency of CPI-1612 (3).
T-47D cells were plated at 4 x 10^6 cells per plate in 10 cm dishes in 10 mL of media. After 16-24 h cells were treated with 5, 50, or 500 nM of 3. Compound 3 was dosed from stock solutions equal to 100x the final concentration in RPMI-1640. When necessary additional DMSO was added to maintain a constant concentration of 0.1%. Controls were treated with vehicle DMSO (0.1%). After 24 h, cells were washed with 5 mL ice cold 1x PBS, scraped in 5 mL of 1x PBS, transferred to a pre-chilled 15 mL tube, centrifuged (800 rcf x 5 min), and either snap frozen or immediately processed via the following protocol.^5 Pellets were washed twice and resuspended in 400 µL NIB (15 mM pH 7.5 Tris-HCl, 60 mM KCl, 15 mM NaCl, 5 mM MgCl2, 1 mM CaCl2, 250 mM sucrose, 1X protease inhibitor cocktail [Cell Signaling Technology #5871]), 1 mM DTT, and 10 mM sodium butyrate) with 0.3% IGEPAL CA-630 to lyse cells. Suspensions were transferred into tubes on ice and incubated for >5 min. Nuclei were pelleted (700 rcf, 4 °C , 5 min) and the supernatant discarded. Pelleted nuclei were subjected to two cycles of a wash with 500 µL NIB (without IGEPAL CA-630) followed by centrifugation (700 rcf, 4 °C , 5 min) in order to remove all IGEPAL CA-630. Nuclei were re-suspended in 200 µL 0.2 N H2SO4 and rotated at 4 °C for 2 h. Samples were then centrifuged (3,400 rcf, 4 °C , 5 min) and supernatants transferred into new tubes (pellets discarded). 66 µL of 100% TCA was added to each sample (final TCA concentration: 20%) and tubes were inverted once. Histones were precipitated at 4 °C for 16 h, then centrifuged (3,400 rcf, 4 °C , 5 min) and supernatants carefully discarded, with histones now visible as films on the sides and at the bottom of tubes. Histones were subjected to two cycles of washing (0.5 mL of ice-cold acetone + 1% 1M HCl, followed by 1 mL of 100% ice-cold acetone) followed by centrifugation (11,000 rcf, 4 °C , 5 min) after each step. Samples were air dried at room temperature and resuspended in 30 µL of ddH2O. […]

A549/ATCC = test: NCI-60 growth inhibition (sulforhodamine B); details: A549/ATCC (Non-Small Cell Lung Cancer), negative log of Molar conc., LCONC -8

## C[C@H](CN[C@@H](C(=O)Nc1ccc(-c2cnn(C)c2)cn1)c1ccccc1)c1ccc(C#N)cc1 [CPI-1612]
SF-268; Homo sapiens, SF-268, read-out: GI50 AVGDATA (converted)
  GI50: 0.676 µM
SF-268; Homo sapiens, SF-268 (CNS Cancer), negative log of Molar conc., LCONC -8, read-out: GI50 NLOGVALUE (converted)
  GI50: 0.692 µM
SF-268; Homo sapiens, SF-268 (CNS Cancer), negative log of Molar conc., LCONC -8, read-out: IC50 NLOGVALUE (converted)
  IC50: 79.4 µM
SF-268; Homo sapiens, SF-268 (CNS Cancer), negative log of Molar conc., LCONC -8, read-out: LC50 NLOGVALUE
  CC50: > 100 µM
SF-268; SF-268 (CNS Cancer), negative log of Molar conc., LCONC -8
  TGI NLOGVALUE: 4
[1]; T-47D cells, 5, 50 or 500 nM, LC-MS
  specificity on histone H3 acetylation marks (H3K9Ac, H3K14Ac, H3K18Ac, H3K23Ac): affected the abundance of only the EP300/CREBBP-dependent peptides containing H3K18Ac
[1]; T-47D, 5 nM, Rep1-3
  ratio normalized to largest mean (vehicle or 500 nM), H3_9_17 K9ac (K9Ac): 160.77 and 142.38
  ratio normalized to largest mean (vehicle or 500 nM), H3_18_26 K18ac (K18Ac): 31.25 and 26.23 and 16.75
  ratio normalized to largest mean (vehicle or 500 nM), summed H3_9_17 K14ac peptides (K14Ac): 93.75 and 92.27 and 95.59
  ratio, H3_9_17 K9ac (K9Ac): 0.039 and 0.034
  ratio, H3_18_26 K18ac (K18Ac): 0.0063 and 0.0053 and 0.0034
  ratio, H3_18_26 K18acK23ac (K18K23Ac): 0.0043 and 0.0044 and 0.0039
  ratio, H3_18_26 K23ac (K23Ac): 0.2133 and 0.2165 and 0.1842
  ratio, summed H3_9_17 K14ac peptides (K14Ac): 0.181 and 0.179 and 0.185
[1]; T-47D, 50 nM, Rep1-3
  ratio normalized to largest mean (vehicle or 500 nM), summed H3_9_17 K14ac peptides (K14Ac): 92.31 and 100.80 and 86.46
  ratio, H3_18_26 K23ac (K23Ac): 0.2929 and 0.2070 and 0.3135
  ratio, summed H3_9_17 K14ac peptides (K14Ac): 0.167 and 0.179 and 0.195
[1]; T-47D, 500 nM, Rep1-3
  ratio normalized to largest mean (vehicle or 500 nM), H3_18_26 K18ac (K18Ac): 2.61 and 1.89 and 1.57
  ratio normalized to largest mean (vehicle or 500 nM), summed H3_9_17 K14ac peptides (K14Ac): 103.05 and 88.46 and 106.21
  ratio, H3_18_26 K18ac (K18Ac): 0.0005 and 0.000379 and 0.0003
  ratio, H3_18_26 K23ac (K23Ac): 0.2977 and 0.3570 and 0.3048
  ratio, summed H3_9_17 K14ac peptides (K14Ac): 0.199 and 0.171 and 0.206
A549/ATCC
  TGI NLOGVALUE: 4
A549/ATCC; Homo sapiens, read-out: GI50 NLOGVALUE (converted)
  GI50: 3.31 µM
A549/ATCC; Homo sapiens, read-out: IC50 NLOGVALUE (converted)
  IC50: 19.1 µM
